{
  "source": "patent US20250090555A1",
  "about": "“METHOD FOR PRODUCING A CBD […] OR SOLID AND USE THEREOF” (Food4Innovations Ventures B.V., priority 2022, published 2025)",
  "format_in_all_cases": "physicochemical",
  "key": {"[1]": {"assay": "Observation of physical stability: viscosity, phase separation, storage / shelf life", "conditions": "before or after homogenization or on storage", "description": "• 1. Before starting the experiment, the most optimal solubilizing phase of the emulsifier (organic or in aqueous phase) may be investigated. This could influence the droplet size and is different for every emulsifier (the movement of the emulsifier from the oil phase into the aqueous phase may be important in the formation of nano emulsions by this method). • 2. Prepare a pre-emulsion comprising the emulsifier in water or oil phase in order to fully dissolve the emulsifier. When mixing the emulsifier into the solubilizing phase, an Ultra turrax is used at 10000 rpm (stand 37) for 3 minutes. If needed, the emulsifier and solubilized phase could be heated prior to mixing. • 3. Mix the pre-emulsion by slowly adding the oil phase to the aqueous phase while mixing with an Ultra turrax at 12000 rpm (stand 40) for 5 min). • 4. Let the pre-emulsion mixture rest for 1 hour. • 5. Homogenize the emulsion with a homogenizer preferably between 300-1200 bar, and between 3 and 5 passes. • 6. Collect the sample and measure the temperature directly. • 7. Allow it to cool completely before measuring the turbidity. • 8. The concentrated emulsion may especially be made into a ready-to-drink clear beverage by diluting it with water. Therefore, dilute a small amount of the obtained concentrated emulsion from step 6 with water to observe the clarity and turbidity of the final product. […]"}, "[2]": {"assay": "Observation of foam formation of the emulsion / diluted beverage"}, "[3]": {"assay": "Turbidity of the emulsion before and after dilution with water, by turbidity meter", "conditions": "dilution factor not printed at the place", "procedure": "A stable, optically clear, beverage is desirably obtained. Homogenization is carried out with a pressure of between 300 bar and 1500 bar, preferably about 800 bar. The homogenization pressure may be applied for between 1 and 5 passes. The ratio of emulsifier to carrier oil in the emulsion may be containing an excess amount of emulsifier in oil, which could be used to make an optically clear beverage. An optimal concentration of between 0 and 3 times more emulsifier in contrast to the oil phase will be tested. Cloudy beverages have a high turbidity, e.g., between 200 and 300 NTU, or even as high as 2,000 NTU. The aim is to develop a beverage with a turbidity<15 NTU. After production of the treatments, the turbidity will therefore be measured by a turbidity meter.\n• 1. Before starting the experiment, the most optimal solubilizing phase of the emulsifier (organic or in aqueous phase) may be investigated. This could influence the droplet size and is different for every emulsifier (the movement of the emulsifier from the oil phase into the aqueous phase may be important in the formation of nano emulsions by this method). • 2. Prepare a pre-emulsion comprising the emulsifier in water or oil phase in order to fully dissolve the emulsifier. […] The concentrated emulsion may especially be made into a ready-to-drink clear beverage by diluting it with water. […]"}},
  "data": [
    {"substance": "Sucrose monostearate", "values": [
      {"measurement": "Viscosity / phase separation / storage behaviour", "setting": "[1]", "value": "became extremely viscous after a couple days of storage"},
      {"measurement": "Foam formation", "setting": "[2]", "value": "no foam formation"},
      {"measurement": "Turbidity", "setting": "[3]", "value": "> 15", "unit": "NTU"}
    ]}
  ]
}
